Test results: US20240263153A1, “INTEGRASE COMPOSITIONS AND METHODS” (Flagship Pioneering Innovations Vi, LLC, priority 2021, published 2024)

System: mouse liver
Assay: LNP-mediated delivery of RNA to the mouse liver (luciferase activity of liver homogenate)
Type: in vivo
Settings: C57BL6 male mice, i.v. 1 mg/kg, Firefly luciferase mRNA-LNPs, liver at 6, 24, 48 hours
Procedure: To measure the effectiveness of LNP-mediated delivery of firefly luciferase containing particles to the liver, LNPs were formulated and characterized as described herein and tested in vitro prior to administration to mice. C57BL6 male mice (Charles River Labs) at approximately 8 weeks of age were dosed with LNPs via intravenous (i.v.) route at 1 mg/kg. Vehicle control animals were dosed i.v. with 300 μL phosphate buffered saline. Mice were injected via intraperitoneal route with dexamethasone at 5 mg/kg 30 minutes prior to injection of LNPs. Tissues were collected at necropsy at or 6, 24, 48 hours after LNP administration with a group size of 5 mice per time point. Liver and other tissue samples were collected, snap-frozen in liquid nitrogen, and stored at −80° C. until analysis.
Frozen liver samples were pulverized on dry ice and transferred to homogenization tubes containing lysing matrix D beads (MP Biomedical). Ice-cold 1× luciferase cell culture lysis reagent (CCLR) (Promega) was added to each tube and the samples were homogenized in a Fast Prep-24 5G Homogenizer (MP Biomedical) at 6 m/s for 40 seconds. The samples were transferred to a clean microcentrifuge tube and clarified by centrifugation. Prior to luciferase activity assay, the protein concentration of liver homogenates was determined for each sample using the Pierce™ BCA Protein Assay Kit (ThermoFisher Scientific) according to the manufacturer's instructions. Luciferase activity was measured with […] (total protein) of liver homogenate using the luciferase assay reagent (Promega) according to manufacturer's instructions using an i3X SpectraMax plate reader (Molecular Devices). […] Reporter activity by the various formulations followed the ranking LIPIDV005>LIPIDV004>LIPIDV003. RNA expression was transient and enzyme levels returned near vehicle background by 48 hours. Post-administration. This assay validated the use of these ionizable lipids and their respective formulations for RNA systems for delivery to the liver.

| Compound | luciferase reporter activity in liver samples |
| --- | --- |
| CCCCC/C=C\C/C=C\CCCCCCCC(=O)OCC(COC(=O)CCC(OCCCCCCCC)OCCCCCCCC)COC(=O)OCCCN(CC)CC (stereo not drawn) [LIPIDV003, (9Z,12Z)-3-((4,4-bis(octyloxy)butanoyl)oxy)-2-((((3-(diethylamino)propoxy)carbonyl)oxy)methyl)propyl octadeca-9,12-dienoate] | LIPIDV005>LIPIDV004>LIPIDV003 |
| CCCCCCCCCOC(=O)CCCCCCCN(CCO)CCCCCCCC(=O)OC(CCCCCCCC)CCCCCCCC [LIPIDV004, Heptadecan-9-yl 8-((2-hydroxyethyl)(8-(nonyloxy)-8-oxooctyl)amino)octanoate] | LIPIDV005>LIPIDV004>LIPIDV003 |
| CCCCCCCC(=O)N(CCCN(C)C)C(CCCCCCCCC(=O)OC(CCCCCC)CCCCCC)CCCCCCCCC(=O)OC(CCCCCC)CCCCCC [LIPIDV005] | LIPIDV005>LIPIDV004>LIPIDV003 |
